US20230295201A1 (Gilead Sciences, Inc., priority 2020, published 2023)
Where two headings read alike, the source gives them in different places.

How the values were obtained:
Assay type in all cases: cell-based
RSV strain A2 = assay: RSV HEp-2 EC50 (infectious cytopathic cell protection assay); conditions: HEp-2 cells, RSV A2, 4 days, read-out: RSV HEp-2 EC50
Summary of the method: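 Percent inhibition of RSV-induced cytopathic effect came from remaining cell viability (CellTiter-Glo luminescence) after 4 days at 37° C. Compounds in 3-fold serial dilutions were exposed to an infectious mix of titered A2 virus and HEp-2 cells at 50,000/ml, with 0% and 100% inhibition control standards.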

RSV A2 = assay: RSV NHBE EC50 (RSV A2 antiviral assay in normal human bronchial epithelial cells); conditions: NHBE cells, RSV A2, 4 days, read-out: RSV NHBE EC50
HRV16 = HRV16 HELA EC50 (cytopathic effect in H1-HeLa cells)
Summary of the method: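 Read-out is luminescent cell viability (CellTiter-Glo) after 96 h of infection at 33 °C, scaled between uninfected and infected-untreated wells. Before infection with titrated virus, compounds went onto H1-HeLa cells as triplicate 3-fold dilution series.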

DENV2 replicon = assay: DENV-2 Huh-7 Rep EC50 (replicon luminescence); conditions: Huh-7 replicon cells, 48 hours, read-out: DENV-2 Huh-7 Rep EC50
Summary of the method: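 EC50 derived from luminescence dose-response, normalised to DMSO-only 0% inhibition wells, after 1.5 h with EnduRen substrate. Compounds were first exposed for 48 h at 37° C to DENV2 replicon Huh-7 cells (5,000/well).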

[1] = human respiratory syncytial virus, HEp-2, 96 h
[2] = human respiratory syncytial virus, NHBE, 96 h
[3] = 96 h, H1-HeLa cells, 33° C., read-out: HRV16 HELA EC50
[4] = Dengue virus, DENV2, Huh-7, 48 h
[5] = H1-HeLa cells, 96 h, 33° C.; read-out: HRV16 HELA EC50

Compound	EC50 (RSV strain A2; [1])	EC50 (RSV A2; [2])	EC50 (HRV16; [3])	EC50 (DENV2 replicon; [4])	EC50 (RSV strain A2)	EC50 (RSV A2)	EC50 (HRV16; [5])	EC50 (DENV2 replicon)
CC(C)OC(=O)[C@@H](C)NP(=O)(OC[C@@]1(C#N)O[C@@H](c2ccc3c(N)ncnn23)[C@H](O)[C@@H]1O)Oc1ccccc1 (stereo partly drawn) [Example 86, (2R)-isopropyl 2-(((((2R,3S,4R,5S)-5-(4-aminopyrrolo[2,1-f][1,2,4]triazin-7-yl)-2-cyano-3,4-dihydroxytetrahydrofuran-2-yl)methoxy)(phenoxy)phosphoryl)amino)propanoate]	22.6 µM	> 5 µM	> 50 µM	> 50 µM	–	–	–	–
CC[C@H](NP(=O)(OC[C@@]1(C#N)O[C@@H](c2ccc3c(N)ncnn23)[C@H](O)[C@@H]1O)Oc1ccccc1)C(=O)OC(C)C (stereo partly drawn) [Example 87, (2S)-isopropyl 2-(((((2R,3S,4R,5S)-5-(4-aminopyrrolo[2,1-f][1,2,4]triazin-7-yl)-2-cyano-3,4-dihydroxytetrahydrofuran-2-yl)methoxy)(phenoxy)phosphoryl)amino)butanoate]	1.34 µM	1.7 µM	6.71 µM	> 100 µM	–	–	–	–
CCOC(=O)[C@H](CC)NP(=O)(OC[C@@]1(C#N)O[C@@H](c2ccc3c(N)ncnn23)[C@H](O)[C@@H]1O)Oc1ccccc1 (stereo partly drawn) [Example 97, (2S)-ethyl 2-(((((2R,3S,4R,5S)-5-(4-aminopyrrolo[2,1-f][1,2,4]triazin-7-yl)-2-cyano-3,4-dihydroxytetrahydrofuran-2-yl)methoxy)(phenoxy)phosphoryl)amino)butanoate]	0.537 µM	1.37 µM	4.42 µM	> 100 µM	–	–	–	–
CC(C)[C@H](NP(=O)(OC[C@@]1(C#N)O[C@@H](c2ccc3c(N)ncnn23)[C@H](O)[C@@H]1O)Oc1ccccc1)C(=O)OC1CCCCC1 (stereo partly drawn) [Example 98, cyclohexyl ((((2R,3S,4R,5S)-5-(4-aminopyrrolo[2,1-f][1,2,4]triazin-7-yl)-2-cyano-3,4-dihydroxytetrahydrofuran-2-yl)methoxy)(phenoxy)phosphoryl)-L-valinate]	> 50 µM	> 5 µM	> 50 µM	> 50 µM	–	–	–	–
CC(C)OC(=O)C[C@H](C)NP(=O)(OC[C@@]1(C#N)O[C@@H](c2ccc3c(N)ncnn23)[C@H](O)[C@@H]1O)Oc1ccccc1 (stereo partly drawn) [Example 99, (3S)-isopropyl 3-(((((2R,3S,4R,5S)-5-(4-aminopyrrolo[2,1-f][1,2,4]triazin-7-yl)-2-cyano-3,4-dihydroxytetrahydrofuran-2-yl)methoxy)(phenoxy)phosphoryl)amino)butanoate]	> 50 µM	> 5 µM	> 50 µM	> 50 µM	–	–	–	–
CCC(CC)COC(=O)C1(NP(=O)(OC[C@@]2(C#N)O[C@@H](c3ccc4c(N)ncnn34)[C@H](O)[C@@H]2O)Oc2ccccc2)CCC1 (stereo partly drawn) [Example 100, 2-ethylbutyl 1-(((((2R,3S,4R,5S)-5-(4-aminopyrrolo[2,1-f][1,2,4]triazin-7-yl)-2-cyano-3,4-dihydroxytetrahydrofuran-2-yl)methoxy)(phenoxy)phosphoryl)amino)cyclobutanecarboxylate]	> 5.6 µM	3.6 µM	18 µM	> 50 µM	–	–	–	–
C[C@@H](NP(=O)(OC[C@@]1(C#N)O[C@@H](c2ccc3c(N)ncnn23)[C@H](O)[C@@H]1O)Oc1ccccc1)C(=O)OCC(C)(C)C (stereo partly drawn) [Example 102, (2R)-neopentyl 2-(((((2R,3S,4R,5S)-5-(4-aminopyrrolo[2,1-f][1,2,4]triazin-7-yl)-2-cyano-3,4-dihydroxytetrahydrofuran-2-yl)methoxy)(phenoxy)phosphoryl)amino)propanoate]	9.95 µM	> 5 µM	16.7 µM	> 100 µM	–	–	–	–
CC[C@H](N[P@@](=O)(OC[C@@]1(C#N)O[C@@H](c2ccc3c(N)ncnn23)[C@H](O)[C@@H]1O)Oc1ccccc1)C(=O)OC1CCCCC1 [Example 104]	–	–	–	–	0.79 µM	0.368 µM	1.8 µM	> 50 µM
CC[C@H](N[P@](=O)(OC[C@@]1(C#N)O[C@@H](c2ccc3c(N)ncnn23)[C@H](O)[C@@H]1O)Oc1ccccc1)C(=O)OC1CCCCC1 [Example 105]	–	–	–	–	3.44 µM	2.02 µM	16.9 µM	> 50 µM
N#C[C@]1(COP(=O)(NC2(C(=O)OC3CCCCC3)CCC2)Oc2ccccc2)O[C@@H](c2ccc3c(N)ncnn23)[C@H](O)[C@@H]1O (stereo partly drawn) [Example 107, cyclohexyl 1-(((((2R,3S,4R,5S)-5-(4-aminopyrrolo[2,1-f][1,2,4]triazin-7-yl)-2-cyano-3,4-dihydroxytetrahydrofuran-2-yl)methoxy)(phenoxy)phosphoryl)amino)cyclobutanecarboxylate]	> 14.2 µM	> 2.89 µM	> 35.7 µM	> 50 µM	–	–	–	–
C[C@H](NP(=O)(OC[C@@]1(C#N)O[C@@H](c2ccc3c(N)ncnn23)[C@H](O)[C@@H]1O)Oc1ccccc1)C(=O)OC1CCCC1 (stereo partly drawn) [Example 108, (2S)-cyclopentyl 2-(((((2R,3S,4R,5S)-5-(4-aminopyrrolo[2,1-f][1,2,4]triazin-7-yl)-2-cyano-3,4-dihydroxytetrahydrofuran-2-yl)methoxy)(phenoxy)phosphoryl)amino)propanoate]	0.147 µM	0.239 µM	0.289 µM	40.8 µM	–	–	–	–
CC[C@H](NP(=O)(OC[C@@]1(C#N)O[C@@H](c2ccc3c(N)ncnn23)[C@H](O)[C@@H]1O)Oc1ccccc1)C(=O)OC1CCCC1 (stereo partly drawn) [Example 109, (2S)-cyclopentyl 2-(((((2R,3S,4R,5S)-5-(4-aminopyrrolo[2,1-f][1,2,4]triazin-7-yl)-2-cyano-3,4-dihydroxytetrahydrofuran-2-yl)methoxy)(phenoxy)phosphoryl)amino)butanoate]	1.07 µM	0.452 µM	2.49 µM	> 50 µM	–	–	–	–
CCC(CC)COC(=O)[C@@H](NP(=O)(OC[C@@]1(C#N)O[C@@H](c2ccc3c(N)ncnn23)[C@H](O)[C@@H]1O)Oc1ccccc1)C1CCCCC1 (stereo partly drawn) [Example 116, (2S)-2-ethylbutyl 2-(((((2R,3S,4R,5S)-5-(4-aminopyrrolo[2,1-f][1,2,4]triazin-7-yl)-2-cyano-3,4-dihydroxytetrahydrofuran-2-yl)methoxy)(phenoxy)phosphoryl)amino)-2-cyclohexylacetate]	> 100 µM	> 5 µM	> 31.9 µM	11.7 µM	–	–	–	–
C[C@H](NP(=O)(OC[C@@]1(C#N)O[C@@H](c2ccc3c(N)ncnn23)[C@H](O)[C@@H]1O)Oc1ccccc1)C(=O)OC1CCC1 (stereo partly drawn) [Example 118, (2S)-cyclobutyl 2-(((((2R,3S,4R,5S)-5-(4-aminopyrrolo[2,1-f][1,2,4]triazin-7-yl)-2-cyano-3,4-dihydroxytetrahydrofuran-2-yl)methoxy)(phenoxy)phosphoryl)amino)propanoate]	0.214 µM	0.316 µM	0.424 µM	27 µM	–	–	–	–
N#C[C@]1(COP(=O)(N[C@H](C(=O)OCC2CC2)C2CCCCC2)Oc2ccccc2)O[C@@H](c2ccc3c(N)ncnn23)[C@H](O)[C@@H]1O (stereo partly drawn) [Example 121, (2S)-cyclopropylmethyl 2-(((((2R,3S,4R,5S)-5-(4-aminopyrrolo[2,1-f][1,2,4]triazin-7-yl)-2-cyano-3,4-dihydroxytetrahydrofuran-2-yl)methoxy)(phenoxy)phosphoryl)amino)-2-cyclohexylacetate]	> 100 µM	> 5 µM	> 100 µM	56.7 µM	–	–	–	–
C[C@H](NP(=O)(OC[C@@]1(C#N)O[C@@H](c2ccc3c(N)ncnn23)[C@H](O)[C@@H]1O)Oc1ccccc1)C(=O)O[C@H]1CCNC1 (stereo partly drawn) [Example 122, (2S)—(S)-pyrrolidin-3-yl 2-(((((2R,3S,4R,5S)-5-(4-aminopyrrolo[2,1-f][1,2,4]triazin-7-yl)-2-cyano-3,4-dihydroxytetrahydrofuran-2-yl)methoxy)(phenoxy)phosphoryl)amino)propanoate]	4.04 µM	> 5 µM	29.3 µM	> 50 µM	–	–	–	–
N#C[C@]1(COP(=O)(N[C@H](C(=O)OCC2CC2)C2CCCC2)Oc2ccccc2)O[C@@H](c2ccc3c(N)ncnn23)[C@H](O)[C@@H]1O (stereo partly drawn) [Example 123, (2S)-cyclopropylmethyl 2-(((((2R,3S,4R,5S)-5-(4-aminopyrrolo[2,1-f][1,2,4]triazin-7-yl)-2-cyano-3,4-dihydroxytetrahydrofuran-2-yl)methoxy)(phenoxy)phosphoryl)amino)-2-cyclopentylacetate]	> 100 µM	> 5 µM	> 100 µM	48.5 µM	–	–	–	–
Cc1oc(=O)oc1COC(=O)C1(NP(=O)(OC[C@@]2(C#N)O[C@@H](c3ccc4c(N)ncnn34)[C@H](O)[C@@H]2O)Oc2ccccc2)CCC1 (stereo partly drawn) [Example 125, (5-methyl-2-oxo-1,3-dioxol-4-yl)methyl 1-(((((2R,3S,4R,5S)-5-(4-aminopyrrolo[2,1-f][1,2,4]triazin-7-yl)-2-cyano-3,4-dihydroxytetrahydrofuran-2-yl)methoxy)(phenoxy)phosphoryl)amino)cyclobutane-1-carboxylate]	3.3 µM	3.65 µM	7.65 µM	> 100 µM	–	–	–	–
